Assays:
[1] = system: VEGF gene; assay: VEGF gene expression by RT-qPCR in HT-29 cells; format: cell-based, human; details: HT-29, 48 h; for mrna remaining at 0.0015 µM: Homo sapiens, 1.5 nM, control 100
Protocol: (§1) The effect on the expression of VEGF, hTERT and c-Myc genes has been studied for CA-4 and its derivatives that show selectivity indexes higher than 0.9 on the HT-29 cell line. The studied derivatives, together with the concentrations to which they have been tested, are CA-4 (15 μM); 4.1 (Gly, 5 μM); 4.5 (L-Pro, 25 μM); 4.9 (L-Met, 25 μM); 6.2 (D-Leu, 25 μM); 6.3 (D-Phe, 25 μM); 6.4 (D-Pro, 25 μM) and 6.5 (D-Ser, 10 μM). The expression of the genes was determined by RT-qPCR methodology, as described in the Materials and Methods section.
(§2) As regards AmCA-4 derivatives, the effect on the expression of the VEGF, hTERT and c-Myc genes has been studied on those that show IC50 in the low nanomolar range on the HT-29 cell line and/or on compounds whose selectivity indexes with respect to this cell line are higher than 1. The studied compounds, together with the concentrations to which they have been tested, are: CA-4 (15 μM), AmCA-4 (15 nM), 7.1 (7 nM), 7.2 (1.5 nM), 7.3 (4 nM), 7.4 (15 nM), 7.5 (2 nM), 7.7 (7 nM), 7.8 (15 nM), 7.9 (30 nM), 8.1 (7 nM), 8.2 (3 nM), 8.3 (10 nM), 8.4 (1.5 nM), 8.5 (4 nM), 8.7 (7 nM), 8.8 (3 nM) and 8.9 (4 nM).
(§3) HT-29 cells at 70–80% confluence were collected, and 1.5 × 10^5 cells were placed in a six-well plate in 1.5 mL of the medium. After 24 h, cells were incubated with the corresponding compounds for 48 h. Cells were collected, and the total cellular RNA from the HT-29 cells was isolated using an Ambion RNA Extraction Kit, according to the manufacturer’s instructions. The cDNA was synthesized by MMLV-RT with […] of extracted RNA and oligo(dT)15, according to the manufacturer’s instructions. Genes were amplified by a thermal cycler and StepOnePlus™ TaqMan® probes. TaqMan® Gene Expression Master Mix Fast, containing the appropriate buffer for the amplification conditions, dNTPs, thermostable DNA polymerase enzyme and a passive reference probe, was used. To amplify each of the genes, the predesigned primers sold by Life Technologies TaqMan® Gene Expression Assays Hs99999903-m1 (β-actin), Hs00900055-m1 (VEGF), Hs00972646-m1 (hTERT) and Hs00153408-m1 (c-Myc) were used.

[2] = system: c-Myc gene; assay: c-Myc gene expression by RT-qPCR in HT-29 cells; format: cell-based, human; details: HT-29, 48 h; for mrna remaining at 0.0015 µM: Homo sapiens, 1.5 nM, control 100
Protocol: as §1, §2, §3

[3] = system: purified tubulin; assay: Critical concentration (CrC) for the assembly of purified tubulin in GAB; format: biochemical; details: compound 27.5 μM, tubulin 25 μM, glycerol (GAB) and GTP assembly buffer; control 7.9 ± 1.2
Protocol: The effect on the self-assembly of tubulin was determined by measuring the critical concentration (CrC).

[4] = system: A-549 cells; assay: Cell cycle distribution by flow cytometry; format: cell-based, human; details: A-549, 24 h
Protocol: The effects of some CA-4 derivatives on the cell cycle were evaluated in A-549 cells.
The effects of some AmCA-4 derivatives on the cell cycle were also evaluated in A-549 cells.
The supernatant and trypsinated cells were harvested and then centrifuged (1200 rpm, 5 min, 4 °C). The cell pellet was resuspended in 1 mL of cold 70% ethanol for 30 min at −20 °C. Cells were centrifuged (2000 rpm, 5 min, 4 °C) to remove ethanol, and then the cell pellet was resuspended in the staining mix containing 50 µg/mL propidium iodide (Molecular Probes, France) and 100 µg/mL RNAse A (Sigma, France) in PBS for 20 min at room temperature in darkness. Samples were analyzed on a Becton Dickinson FACScan flow cytometer using the CellQuest software, which was also used to determine the percentage of cells in the G2/M phases of the cell cycle. PI was excited at 488 nm, and fluorescence analyzed at 620 nm on channel Fl-2.

[5] = system: hTERT gene; assay: hTERT gene expression by RT-qPCR in HT-29 cells; format: cell-based, human; details: Homo sapiens, HT-29, 48 h, 1.5 nM, control 100
Protocol: as §1, §2, §3

[6] = system: A-549 (human pulmonary adenocarcinoma); assay: Inhibition of cell proliferation (MTT), A-549; format: cell-based; details: 48 h of treatment (footnote), average ±SD of three experiments
From the text: (§4) The ability of the synthetic compounds to inhibit cell proliferation was established by means of their IC50 values towards the tumor cell lines HT-29 (human colon adenocarcinoma), MCF-7 (breast adenocarcinoma) and A-549 (human pulmonary adenocarcinoma), as well as towards the nontumor cell line HEK-293 (human embryonic kidney cells). Results for compounds derived from CA-4 are presented in Table 1, along with the calculated selectivity indexes SIA (for HT-29 cell line), SIB (for MCF-7 cell line) and SIc (for A-549 cell line), obtained by dividing the IC50 values of the nontumor cell line (HEK-293) by those of the corresponding tumor cell line. The higher the SI index, the higher the therapeutic safety margin.
Cell culture media were purchased from Gibco (Grand Island, NY, USA). Fetal bovine serum (FBS) was a product of Harlan-Seralab (Belton, U.K.). Supplements and other chemicals not listed in this section were obtained from Sigma Chemical Co. (St. Louis, MO, USA). Plastics for cell culture were supplied by Thermo Fischer Scientific Inc., Madrid, Spain. All tested compounds were dissolved in DMSO at a concentration of 10 μg/mL and stored at −20 °C until use. HT-29, MCF-7, A-549 and HEK-293 cell lines were maintained in a Dulbecco’s modified Eagle’s medium (DMEM) containing glucose (1 g/L), glutamine (2 mM), penicillin (50 IU/mL), streptomycin (50 μg/mL) and amphotericin B (1.25 μg/mL), supplemented with 10% FBS. Cells from human non-small lung carcinoma (clone A549; ATCC n°: CCL2, MD, USA) were routinely grown at 37 °C in a humidified atmosphere of 5% CO2. Cells were maintained in a standard medium composed of RPMI 1640 (Lonza, Group Ltd., Basel, Switzerland), supplemented with 10% fetal bovine serum (FBS), 2 mM L-glutamine and 1% penicillin and streptomycin (Invitrogen). Cells were free from mycoplasma as determined by MycoAlert tests (Lonza, Group Ltd., Basel, Switzerland). […]

[7] = system: HEK-293 (human embryonic kidney cells); assay: Inhibition of cell proliferation (MTT), nontumor HEK-293; format: cell-based; details: Homo sapiens, 48 h of treatment (footnote), average ±SD of three experiments
From the text: as §4
(§5) Cell culture media were purchased from Gibco (Grand Island, NY, USA). Fetal bovine serum (FBS) was a product of Harlan-Seralab (Belton, U.K.). Supplements and other chemicals not listed in this section were obtained from Sigma Chemical Co. (St. Louis, MO, USA). Plastics for cell culture were supplied by Thermo Fischer Scientific Inc., Madrid, Spain. All tested compounds were dissolved in DMSO at a concentration of 10 μg/mL and stored at −20 °C until use. HT-29, MCF-7, A-549 and HEK-293 cell lines were maintained in a Dulbecco’s modified Eagle’s medium (DMEM) containing glucose (1 g/L), glutamine (2 mM), penicillin (50 IU/mL), streptomycin (50 μg/mL) and amphotericin B (1.25 μg/mL), supplemented with 10% FBS. Cells from human non-small lung carcinoma (clone A549; ATCC n°: CCL2, MD, USA) were routinely grown at 37 °C in a humidified atmosphere of 5% CO2. Cells were maintained in a standard medium composed of RPMI 1640 (Lonza, Group Ltd., Basel, Switzerland), supplemented with 10% fetal bovine serum (FBS), 2 mM L-glutamine and 1% penicillin and streptomycin (Invitrogen). Cells were free from mycoplasma as determined by MycoAlert tests (Lonza, Group Ltd., Basel, Switzerland).
(§6) A total of 5 × 10^3 HT-29, MCF-7 or HEK-293 cells in a total volume of 100 μL of their respective growth media were incubated with serial dilutions of the tested compounds. The 3-(4,5-dimethylthiazol-2-yl)-2,5-diphenyltetrazolium bromide (MTT; Sigma Chemical Co.) dye reduction assay in a 96-well microplate was used, as previously described. […] The resulting formazan was dissolved in 150 μL of 0.04 N HCl/2-propanol and read at 550 nm. All determinations were carried out in triplicate.

[8] = system: MCF-7 (breast adenocarcinoma); assay: Inhibition of cell proliferation (MTT), MCF-7; format: cell-based, human; details: Homo sapiens, 48 h of treatment (footnote), average ±SD of three experiments
From the text: as §4, §5, §6

[9] = system: HT-29 (human colon adenocarcinoma); assay: Inhibition of cell proliferation (MTT), HT-29; format: cell-based; details: Homo sapiens, 48 h of treatment (footnote), average ±SD of three experiments
From the text: as §4, §5, §6

[10] = discussion, concentration per compound
[11] = Homo sapiens, A549, 48 h, Table 2
[12] = Homo sapiens, A549, 48 h, Table 1
[13] = concentration per compound as in Tables 6 and 7

Row | Structure (SMILES) | CrC (critical concentration) [3] | G0/G1 ([4]; 0.5 µM) | G2/M ([4]; 0.5 µM) | S ([4]; 0.5 µM) | IC50 [6, 11] | IC50 ([7]; HEK293, Table 1) | G0/G1 ([4]; 75 μM) | G2/M ([4]; 75 μM) | S ([4]; 75 μM) | IC50 ([8]; MCF7, Table 1) | IC50 ([9]; HT-29, Table 1) | IC50 [6, 12] | IC50 ([7]; HEK293, 48 h, Table 1) | Effect on the cell cycle [4, 13] | IC50 ([8]; MCF7, 48 h, Table 1) | IC50 ([9]; HT-29, 48 h, Table 1) | further results
1 | COc1ccc(/C=C\c2cc(OC)c(OC)c(OC)c2)cc1NC(=O)[C@H](C)NC(=O)OCC1c2ccccc2-c2ccccc21 [Compound 7.2] | 9.4 ± 0.3 µM | 28 ± 1% | 53 ± 2% | 19 ± 2% | 0.242 ± 0.013 µM |  |  |  |  |  |  |  |  |  |  |  | downregulation of VEGF gene expression [1, 10]: more than 60%; mrna remaining at 0.0015 µM [1]: 25%; downregulation of c-Myc gene expression [2, 10]: more than 60%; mrna remaining at 0.0015 µM [2]: 22%; mrna remaining at 0.0015 µM [5]: 79%
2 | COC(=O)[C@H](CCSC)NC(=O)COc1cc(/C=C\c2cc(OC)c(OC)c(OC)c2)ccc1OC [Compound 3.9] | 8.06 ± 0.04 µM |  |  |  |  | 8 ± 1 µM | 47 ± 4% | 36 ± 1% | 17 ± 3% | 10 ± 3 µM | 16 ± 7 µM | < 10 µM |  |  |  |  | IC50 ([6]; Table 1): 10 ± 2 µM
3 | COc1ccc(/C=C\c2cc(OC)c(OC)c(OC)c2)cc1OCC(=O)N1CCC[C@H]1C(=O)O [Compound 4.5] | 9.2 ± 0.5 µM |  |  |  |  |  | 72% | 16% | 12% |  |  | 110 ± 10 µM | 45 ± 16 µM | do not exert any significant effect on the cells | 83 ± 16 µM | 26 ± 13 µM | 
4 | COc1ccc(/C=C\c2cc(OC)c(OC)c(OC)c2)cc1NC(=O)[C@H](N)CC(C)C [Compound 10.2] | 7.0 ± 0.5 µM | 63 ± 4% | 22 ± 2% | 16 ± 3% | 0.157 ± 0.007 µM |  |  |  |  |  |  |  |  | do not accumulate a high percentage of cells in phase G2/M |  |  | IC50 ([7]; HEK293, 48 h, Table 2): 0.43 ± 0.04 µM; IC50 ([8]; MCF7, 48 h, Table 2): 2 ± 0.9 µM; IC50 ([9]; HT-29, 48 h, Table 2): 1.05 ± 0.14 µM
5 | COC(=O)[C@H](CC(C)C)NC(=O)COc1cc(/C=C\c2cc(OC)c(OC)c(OC)c2)ccc1OC [Compound 3.3] | 9.4 ± 1.4 µM |  |  |  |  |  | 45 ± 6% | 36 ± 4% | 19 ± 2% |  |  | < 10 µM | 9 ± 2 µM |  | 19 ± 6 µM | 29 ± 6 µM | IC50 ([6]; Table 1): 8 ± 1 µM
6 | COC(=O)[C@H]1CCCN1C(=O)COc1cc(/C=C\c2cc(OC)c(OC)c(OC)c2)ccc1OC [Compound 5.4] | 9 ± 3 µM |  |  |  |  | 5.7 ± 0.8 µM | 36 ± 4% | 50 ± 1% | 14 ± 3% | 10 ± 4 µM | 50 µM | 15 ± 1 µM |  |  |  |  | 
7 | COC(=O)[C@@H]1CCCN1C(=O)COc1cc(/C=C\c2cc(OC)c(OC)c(OC)c2)ccc1OC [Compound 3.5] | 10.4 ± 2.0 µM |  |  |  |  | 20 ± 1 µM |  |  |  | 24 ± 2 µM | 48 ± 5 µM | 50 ± 10 µM |  | do not exert any significant effect on the cells |  |  | G0/G1 ([4]; 100 μM): 77 ± 2%; G2/M ([4]; 100 μM): 7 ± 1%; S ([4]; 100 μM): 16 ± 2%
8 | COc1ccc(/C=C\c2cc(OC)c(OC)c(OC)c2)cc1NC(=O)[C@@H](N)CC(C)C [Compound 8.4] | 8.3 ± 0.3 µM | 35 ± 1% | 48 ± 1% | 17 ± 2% | 0.167 ± 0.023 µM |  |  |  |  |  |  |  |  |  |  |  | mrna remaining at 0.0015 µM [1]: 67%; mrna remaining at 0.0015 µM [2]: 48%; mrna remaining at 0.0015 µM [5]: 73%
9 | COC(=O)[C@@H](CO)NC(=O)COc1cc(/C=C\c2cc(OC)c(OC)c(OC)c2)ccc1OC [Compound 5.5] | 9.2 ± 0.9 µM |  |  |  |  |  |  |  |  |  |  | 28 ± 1 µM | 9 ± 3 µM |  | 7 ± 2 µM | 11 ± 2 µM | cells accumulated in the G2/M phase ([4]; concentration per compound as in Tables 6 and 7, control 14%): 50–70%
